System: Tetrahymena pyriformis
Assay: 48 h IGC50 (-log10 mol/L); higher = more toxic

| SMILES | 48 h IGC50 (-log10 mol/L) |
| --- | --- |
| CCCCCCCCCCN | 5.06 |
| OCc1cc(Br)ccc1O | 3.34 |
| CC#Cc1ccccc1 | 3.19 |
| NC(=O)c1ccc(Cl)cc1 | 3.09 |
| CCCCCCCC(O)CCCCC (stereo not given) | 5.24 |
| CN(CCO)CCO | 1.17 |
| C#CCNC | 2.02 |
| CCOC(=O)C(C)CC (stereo not given) | 2.11 |
| N#Cc1cccc(C=O)c1 | 2.98 |
| CCCC(=O)OC | 1.75 |
| CCC(C)(O)c1ccccc1 (stereo not given) | 3.06 |
| C=CC(=O)CCCCC | 4.92 |
| CCCCCCCC=CCO | 4.13 |
| N#CCCCBr | 2.54 |
| O=[N+]([O-])c1ccc(F)cc1O | 4.12 |
| CCCCCOC(=O)c1ccccc1 | 4.37 |
| COc1cc(O)ccc1O | 5.2 |
| CCCCCCCCCCCC(C)O (stereo not given) | 5.17 |
| Cc1ccc(CCN)cc1 | 2.96 |
| COc1cc(C=O)cc(O)c1OC | 2.61 |
| CCSCC | 2.02 |
| CCOC(=O)CCl | 4.06 |

| SMILES | 48 h IGC50 (-log10 mol/L) |
| --- | --- |
| CCC(O)c1ccccc1 (stereo not given) | 2.57 |
| O=Cc1ccccc1F | 3.08 |
| O=Cc1cc(O)c(O)c(O)c1 | 2.8 |
| Oc1ccc(Br)cc1 | 3.68 |
| O=[N+]([O-])c1c(Cl)cc(Cl)cc1Cl | 4.43 |
| Cc1cnccn1 | 1.91 |
| CCOC(=O)CC#N | 1.77 |
| CCC#CCO | 2.43 |
| CCCC(=O)NN | 2.03 |
| O=[N+]([O-])c1c(F)cc(F)c(F)c1F | 4.87 |
| N#Cc1ccccc1O | 3.04 |
| CC#CC(O)CC (stereo not given) | 2.81 |
| CC(O)CCO (stereo not given) | 0.699 |
| O=C(Oc1cccc(O)c1)c1ccccc1 | 4.11 |
| CC(=O)N(C)C | 1.05 |
| Cc1ccncc1C | 2.5 |
| CCC(Cl)C(N)=O (stereo not given) | 1.78 |
| Oc1c(Cl)c(Cl)c(O)c(Cl)c1Cl | 5.11 |
| CCCCCCC=O | 3 |
| Oc1c(Cl)cc(F)cc1Cl | 3.8 |
| OCCCCCCCl | 2.73 |
| C#CC(=O)OC | 4.77 |

| SMILES | 48 h IGC50 (-log10 mol/L) |
| --- | --- |
| CCCCCCCCCCCC#N | 4.9 |
| N#CCCCCBr | 2.79 |
| Clc1cccc(Cl)c1Br | 4.34 |
| CCOC(=O)c1ccc(C#N)cc1 | 3.37 |
| O=C(O)c1cccc(O)c1 | 2.19 |
| COC(=O)C(C)(C)C | 1.72 |
| CCCCCOC(=O)CC | 2.96 |
| CC/C=C/C(=O)O | 2.72 |
| CC(C)(O)c1ccccc1 | 2.43 |
| Cc1[nH]cnc1C=O | 2.07 |
| Cc1cccc2ccccc12 | 3.74 |
| Cc1ccc(Cl)c(C=O)c1F | 3.74 |
| CCCCCCCCCC(=O)O | 3.51 |
| CCCC#CCO | 2.62 |
| Oc1ccc(O)c(O)c1 | 3.44 |
| BrCCCc1ccccc1 | 3.69 |
| C=CCOC(C)=O | 3.48 |
| O=[N+]([O-])c1ccccc1-c1ccccc1 | 4.3 |
| Fc1cc(F)c(F)nc1F | 2.39 |
| N#Cc1cccs1 | 2.24 |
| C=CCC(C)O (stereo not given) | 1.48 |
| O=C(O)CCCC(=O)O | 2.36 |

| SMILES | 48 h IGC50 (-log10 mol/L) |
| --- | --- |
| C=C(C)C(=O)OCC(CC)CCCC (stereo not given) | 4.57 |
| CCCCCCCCCOC(=O)c1ccc(O)cc1 | 5.63 |
| CC/C=C\CCO | 2.19 |
| Cc1cc(=O)[nH]cc1[N+](=O)[O-] | 2.83 |
| NC(CO)CO | 1.32 |
| COC(=O)CCCCCCCCCCCC(=O)OC | 4.65 |
| CC(=O)OC(C)C | 1.41 |
| CCCCCN | 2.52 |
| Ic1ccccc1 | 3.36 |
| CC(=O)c1ccc(C#N)cc1 | 2.63 |
| CCCCCCCCCCO | 4.33 |
| CCC#CCCO | 1.98 |
| CC(C)C(=O)O | 2.67 |
| Oc1ccc(O)c(-c2ccccc2)c1 | 5.01 |
| C=CC(O)CC (stereo not given) | 1.65 |
| CCCCCCO | 2.62 |
| CCCCCCCCC(C)O (stereo not given) | 3.99 |
| C=CC(=O)OCCC | 3.53 |
| OC(c1ccccc1)c1ccccc1 | 3.5 |

— EPA's aquatic toxicity sets
